Data published in US20260209177A1, “1-DEOXYNOJIRIMYCIN DERIVATIVE AND USE THEREOF” (ZHEJIANG UNIVERSITY, priority 2022, published 2026).
Entries after “also recorded” stand apart in the source; their conditions may differ.

Tests used:
OPA1-EGFP protein = target: T1, OPA1-EGFP protein (Homo sapiens, UniProt O60313); test: Microscale thermophoresis (MST) affinity to purified OPA1-EGFP protein; assay type: binding; details: FIG. 20
T1 construct: Flag; His; made in house; host or cells: HEK293T
T1 sequence (O60313 88-960): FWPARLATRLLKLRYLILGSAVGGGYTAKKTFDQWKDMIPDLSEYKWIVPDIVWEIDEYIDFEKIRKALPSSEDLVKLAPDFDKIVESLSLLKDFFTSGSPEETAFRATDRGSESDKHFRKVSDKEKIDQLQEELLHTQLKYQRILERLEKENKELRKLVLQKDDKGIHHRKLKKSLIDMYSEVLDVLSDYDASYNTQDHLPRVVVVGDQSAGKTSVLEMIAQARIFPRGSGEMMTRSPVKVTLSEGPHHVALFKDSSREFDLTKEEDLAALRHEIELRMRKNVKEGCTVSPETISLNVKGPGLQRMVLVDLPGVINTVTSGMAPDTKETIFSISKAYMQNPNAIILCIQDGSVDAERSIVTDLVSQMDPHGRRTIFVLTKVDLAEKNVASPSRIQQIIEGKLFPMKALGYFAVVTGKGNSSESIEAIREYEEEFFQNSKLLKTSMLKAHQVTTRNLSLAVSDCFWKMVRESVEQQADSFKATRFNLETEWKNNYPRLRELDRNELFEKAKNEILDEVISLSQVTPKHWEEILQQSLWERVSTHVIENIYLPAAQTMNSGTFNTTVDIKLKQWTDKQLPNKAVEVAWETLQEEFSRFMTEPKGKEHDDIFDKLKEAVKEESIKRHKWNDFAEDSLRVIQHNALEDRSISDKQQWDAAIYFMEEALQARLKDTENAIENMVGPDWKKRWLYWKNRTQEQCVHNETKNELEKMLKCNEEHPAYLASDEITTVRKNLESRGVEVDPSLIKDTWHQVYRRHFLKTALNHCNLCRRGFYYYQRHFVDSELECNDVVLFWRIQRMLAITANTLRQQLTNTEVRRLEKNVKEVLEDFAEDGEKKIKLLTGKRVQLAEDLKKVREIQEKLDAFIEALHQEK
Text: An OPA1-EGFP protein was subjected to eukaryotic purification, and an interaction between the target protein and a small molecule compound was detected by microscale thermophoresis (MST) to obtain an affinity parameter, namely a KD value, of the two.
A full-length sequence of OPA1 (NM_015560.2) was obtained by PCR from cDNA derived from HEK293T and then subjected to homologous recombination into a pcDNA3.1-Flag/His-EGFP empty vector to successfully construct a pcDNA3.1-OPA1-Flag/His-EGFP eukaryotic expression vector.
A Flag/His-OPA1-EGFP protein was overexpressed in HEK293T. After transfection for 48 hours, cells were collected and lysed. A protein supernatant was transferred to a new 15 mL centrifuge tube, Flag-beads were added, and incubation was performed on a turntable at 4° C. for 6-8 hours. Then, the supernatant was discarded with a magnetic grate. […] The purified protein was identified and quantified through electrophoresis gel running and a Coomassie brilliant blue staining experiment (FIG. 20A).
The derivative DNJ-1 (mother solution at 30 mM/L) was diluted 150-fold with Binding Buffer to serve as an initial concentration of tube 1. […] 10 μL of the 40 nM purified EGFP-OPA1 mixture was added into each tube and analyzed by a Monolith NT.115 instrument. The Kd value was calculated. […]

[1] = test system: MT-RNR2 mutant HCM-Cybrids; test: JC-10 mitochondrial membrane potential, polyclonal secondary screening (3 HCM-Cybrids clones); assay type: cell-based, human; details: 30 μM, 24 hours, 3 HCM-Cybrids cell clones, FIG. 17
Text: Polyclonal secondary screening results of different DNJ derivatives on the mitochondrial membrane potential of MT-RNR2 mutant HCM-Cybrids.
A method for detecting the mitochondrial membrane potential was the same as that previously described in Example 3. A difference is that 3 HCM-Cybrids cell clones were applied herein for detection to achieve the purpose of making the results more reliable. […] Next, the focus was on DNJ-1 and DNJ-5a to improve the situations of the membrane potential of Cybrids cells in a normal group and the addition of FCCP in different groups, as shown in FIG. 17B.
An operation method in FIG. 17B is as follows. 30 μM DNJ-1 and DNJ-5a drugs were added into Con-Cybrids and HCM-Cybrids cells, and after 24 hours, 50 μL of 10 μM FCCP diluted with a culture medium was added into 3 duplicate wells in each group. The FCCP, as a decoupling agent, was capable of disrupting the formation of mitochondrial membrane potential. 50 μL of a culture medium was added into 3 cloned duplicate wells in each group. The cells were placed in an environment with 5% of CO2 for culture at 37° C. for 30 min. 100×compound A (JC-10) was diluted with compound B (JC-10 Buffer A). A diluted liquid was added into a well plate at 25 μl per well. The cells were placed in an environment with 5% of CO2 for culture at 37° C. for 30 min. Before loading on a machine, JC-10 Buffer B was added into the well plate at 25 μL per well. Fluorescence values corresponding to Ex/Em=490 nm/525 nm and 540 nm/590 nm were detected by a microplate reader. After a corresponding blank control group was subtracted for each well, PL590/PL525 was compared.

Compound | Kd value compared with the lead compound DNJ (OPA1-EGFP protein) | enhancement effect on the mitochondrial membrane potential (PL590/PL525) [1]
O=C(CCCC[C@@H]1CCSS1)N1C[C@H](O)[C@@H](O)[C@H](O)[C@H]1CO [DNJ-1, 5-((R)-1,2-dithiolan-3-yl)-1-((2R,3R,4R,5S)-3,4,5-trihydroxy-2-(hydroxymethyl)piperidin-1-yl) p entan-1-one] | significantly decreased | significantly enhance; also recorded: most significant enhancement effects
CC(C)(C)C(=O)OC[C@H]1NC[C@H](O)[C@@H](O)[C@@H]1O [DNJ-5a, ((2R,3R,4R,5S)-3,4,5-trihydroxypiperidin-2-yl)methyl pivalate] | significantly decreased | significantly enhance; also recorded: most significant enhancement effects
